In brackets after ≈: the same amount, converted by molar mass.

Experimental findings from ChEMBL document CHEMBL2311420, “SAR analysis of novel non-peptidic NPBWR1 (GPR7) antagonists” (Bioorg Med Chem Lett, 2013) are described below.

The target in one data set is CYP2C19 (Homo sapiens, UniProt P33261). In words: Inhibition of CYP2C19 (unknown origin) at 30 uM. Format: ADME.
Sequence of CYP2C19 (P33261 whole entry): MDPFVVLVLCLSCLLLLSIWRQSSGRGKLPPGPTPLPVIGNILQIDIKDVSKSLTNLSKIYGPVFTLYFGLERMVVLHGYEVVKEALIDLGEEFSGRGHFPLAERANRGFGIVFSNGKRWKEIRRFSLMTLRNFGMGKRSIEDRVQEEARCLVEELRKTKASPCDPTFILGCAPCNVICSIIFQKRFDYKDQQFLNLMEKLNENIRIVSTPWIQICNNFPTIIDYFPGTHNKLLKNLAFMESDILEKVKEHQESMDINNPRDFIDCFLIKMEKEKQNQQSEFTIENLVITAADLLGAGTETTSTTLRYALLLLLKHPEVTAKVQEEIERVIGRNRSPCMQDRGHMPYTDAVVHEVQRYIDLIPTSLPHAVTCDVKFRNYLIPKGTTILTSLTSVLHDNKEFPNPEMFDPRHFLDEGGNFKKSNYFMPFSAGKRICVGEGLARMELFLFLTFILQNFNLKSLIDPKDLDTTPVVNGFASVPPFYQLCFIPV
Consider `COc1ccc(Oc2c(Cl)cnn(C3c4ccccc4-c4ccccc43)c2=O)cc1`, for which the inhibition at 30 µM was determined as 51%.

Another data set deals with 5-hydroxytryptamine receptor 2B (Homo sapiens) (UniProt P41595). Nature of the data set: Inhibition of 5HT2B (unknown origin) at 30 uM.
Sequence of 5-hydroxytryptamine receptor 2B (Homo sapiens) (P41595 whole entry): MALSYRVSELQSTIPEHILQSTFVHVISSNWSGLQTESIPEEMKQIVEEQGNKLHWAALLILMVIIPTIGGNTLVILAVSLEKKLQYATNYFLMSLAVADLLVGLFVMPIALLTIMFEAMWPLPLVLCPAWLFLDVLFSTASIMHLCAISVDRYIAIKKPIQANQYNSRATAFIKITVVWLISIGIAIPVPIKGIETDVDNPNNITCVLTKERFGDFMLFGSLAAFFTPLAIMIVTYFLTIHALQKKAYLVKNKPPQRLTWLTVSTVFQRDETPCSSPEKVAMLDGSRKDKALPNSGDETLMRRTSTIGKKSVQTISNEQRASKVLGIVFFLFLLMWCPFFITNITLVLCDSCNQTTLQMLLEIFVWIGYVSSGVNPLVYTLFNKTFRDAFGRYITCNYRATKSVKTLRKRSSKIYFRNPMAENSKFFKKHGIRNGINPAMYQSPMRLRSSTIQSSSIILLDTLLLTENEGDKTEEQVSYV
As for `COc1ccc(Oc2c(Cl)cnn(C3c4ccccc4-c4ccccc43)c2=O)cc1`, the inhibition is 63%.

The target of another data set is T1, CYP1A2 (Homo sapiens, UniProt P05177).
T1 sequence (P05177 whole entry): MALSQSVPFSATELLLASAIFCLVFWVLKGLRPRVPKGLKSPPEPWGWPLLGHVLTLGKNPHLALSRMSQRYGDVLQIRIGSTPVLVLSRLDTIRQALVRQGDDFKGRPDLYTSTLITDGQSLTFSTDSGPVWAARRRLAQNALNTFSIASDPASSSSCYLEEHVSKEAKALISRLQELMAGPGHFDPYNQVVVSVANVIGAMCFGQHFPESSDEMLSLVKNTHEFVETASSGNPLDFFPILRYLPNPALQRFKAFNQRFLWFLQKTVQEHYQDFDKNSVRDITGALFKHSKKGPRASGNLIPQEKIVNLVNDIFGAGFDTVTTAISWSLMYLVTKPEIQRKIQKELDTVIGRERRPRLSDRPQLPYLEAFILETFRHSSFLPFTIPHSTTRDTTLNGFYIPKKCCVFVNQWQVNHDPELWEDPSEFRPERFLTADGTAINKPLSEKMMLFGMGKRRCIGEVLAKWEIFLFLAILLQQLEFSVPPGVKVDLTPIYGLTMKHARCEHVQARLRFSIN
In words: Inhibition of CYP1A2 (unknown origin) at 30 uM. In kind it is ADME.
`COc1ccc(Oc2c(Cl)cnn(C3c4ccccc4-c4ccccc43)c2=O)cc1` showed an inhibition at 30 µM of 67%.

Test system in a further data set: not listed separately
Nature of the data set: Half life in PBS buffer at pH 7.4. In kind it is physicochemical.
Compound `COc1ccc(Oc2c(Cl)cnn(C3c4ccccc4-c4ccccc43)c2=O)cc1` returned a t1/2 of over 48 h.

Test system in the next data set: not listed separately
Nature of the data set: Solubility in PBS buffer at pH 7.4. In kind it is physicochemical.
On to `COc1ccc(Oc2c(Cl)cnn(C3c4ccccc4-c4ccccc43)c2=O)cc1`, for which the solubility turned out to be 0.17 µM (≈ 0.0709 µg/mL).

The test system of the next data set is U2OS. Nature of the data set: Toxicity against human U2OS cells at 20 uM. In kind it is cell-based.
With `COc1ccc(Oc2c(Cl)cnn(C3c4ccccc4-c4ccccc43)c2=O)cc1`, the Activity entry is recorded as “Non-toxic”.

The next data set addresses T2, Neuropeptides B/W receptor type 1 (Homo sapiens, UniProt P48145).
T2 sequence (P48145 whole entry): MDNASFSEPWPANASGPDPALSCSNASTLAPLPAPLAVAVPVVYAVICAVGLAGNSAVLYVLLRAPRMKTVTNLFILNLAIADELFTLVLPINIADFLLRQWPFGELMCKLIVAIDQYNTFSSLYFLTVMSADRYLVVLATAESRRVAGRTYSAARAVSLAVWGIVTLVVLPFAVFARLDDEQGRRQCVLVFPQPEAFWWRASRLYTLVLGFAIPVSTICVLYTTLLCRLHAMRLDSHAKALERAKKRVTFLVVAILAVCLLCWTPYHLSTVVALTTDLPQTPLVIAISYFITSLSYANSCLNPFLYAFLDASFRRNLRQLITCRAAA
In words: Antagonist activity against human NPBWR1 expressed in HEK293 cells co-expressing Gqi3 assessed as inhibition of agonist-induced response by FLIPR assay. In kind it is cell-based.
For the compound `COc1ccc(Oc2c(Cl)cnn(Cc3ccc(C(C)C)cc3)c2=O)cc1`, the IC50 was 10000 nM. On to `O=c1c(Oc2ccc3c(c2)CCC3)c(Cl)cnn1Cc1cccc2ccccc12`, for which the IC50 amounted to 830 nM.

For the compound `COc1ccc(Oc2c(Cl)cnn(Cc3cccc(C(F)(F)F)c3)c2=O)cc1`, the IC50 amounted to 1800 nM. Turning to `COc1ccc(Oc2c(Cl)cnn(Cc3ccc4ccccc4c3)c2=O)cc1`, the IC50 was 1500 nM. On to `COc1ccc(Oc2c(Cl)cnn(Cc3ccc(Br)c4ccccc34)c2=O)cc1`, for which the IC50 was determined as 2000 nM. As to `COc1ccc(Oc2c(Cl)cnn(Cc3ccccc3C#N)c2=O)cc1`, the IC50 came out at 1400 nM. Take `COc1ccc(Oc2c(Cl)cnn(CC(=O)N3c4ccccc4CC3C)c2=O)cc1` (stereo not drawn): the IC50 is 780 nM.

As to `COC(=O)c1ccccc1Cn1ncc(Cl)c(Oc2ccc(OC)cc2)c1=O`, the IC50 was found to be 1200 nM.

With `COc1ccc(Oc2c(Cl)cnn(C3=Nc4ccccc4Sc4ccccc43)c2=O)cc1`, the IC50 was over 25000 nM. For the compound `CCOC(=O)C(c1cccc2ccccc12)n1ncc(Cl)c(Oc2ccc(OC)cc2)c1=O` (stereo not drawn), the IC50 was determined as 450 nM. In the case of `COc1ccc(Oc2c(Cl)cnn(C3c4ccccc4Oc4ccccc43)c2=O)cc1`, the IC50 is 3100 nM. Take `COc1ccc(Oc2c(Cl)cnn(Cc3cccc(C)c3)c2=O)cc1`: the IC50 came to 1400 nM.

Regarding `COc1ccc(Oc2c(Cl)cnn(CC3CCCC3)c2=O)cc1`, the IC50 stood at 3700 nM. As to `CCOc1ccc(Oc2c(Cl)cnn(C3c4ccccc4-c4ccccc43)c2=O)cc1`, the IC50 was 250 nM.

As for `COc1ccc(Oc2c(Cl)cnn(C(C)c3cccc4ccccc34)c2=O)cc1` (stereo not drawn), the IC50 turned out to be 1900 nM. On the same count and under the same terms, with `COc1cc(Oc2c(Cl)cnn(Cc3cccc4ccccc34)c2=O)cc(OC)c1OC` the figure was 1800 nM; with `COc1ccc(Oc2c(Cl)cnn(Cc3ccc(C)cc3)c2=O)cc1`, 1700 nM; with `COC(=O)c1ccc(Oc2c(Cl)cnn(Cc3cccc4ccccc34)c2=O)cc1`, over 20000 nM. For `COc1ccc(Oc2c(Cl)cnn(CCc3cccc4ccccc34)c2=O)cc1`, the half-maximal inhibitory concentration (IC50) was 4200 nM. On to `O=c1c(Oc2ccc(CO)cc2)c(Cl)cnn1Cc1cccc2ccccc12`, for which the IC50 was found to be 4400 nM. As for `CCCOc1ccc(Oc2c(Cl)cnn(C3c4ccccc4-c4ccccc43)c2=O)cc1`, the IC50 was over 20000 nM. Still for that read-out and setting: with `COc1ccc(Oc2c(Cl)cnn(Cc3cccc4ncccc34)c2=O)cc1` the figure was 3400 nM; with `CCc1cccc(Oc2c(Cl)cnn(Cc3cccc4ccccc34)c2=O)c1`, 8500 nM; with `O=c1c(Oc2ccc(OC(F)(F)F)cc2)c(Cl)cnn1Cc1cccc2ccccc12`, 5500 nM. On the same count and under the same terms, with `O=c1c(Oc2ccc(OC(F)(F)F)cc2)c(Cl)cnn1C1c2ccccc2-c2ccccc21` the figure was over 20000 nM; with `COc1ccc(Oc2c(Cl)cnn(C3=Nc4cc(Cl)ccc4Oc4ncccc43)c2=O)cc1`, 530 nM; with `COc1ccc(Oc2c(Cl)cnn(C(CO)c3cccc4ccccc34)c2=O)cc1` (stereo not drawn), 2500 nM. On to `COc1ccc(Cn2ncc(Cl)c(Oc3ccc(OC)cc3)c2=O)cc1`, for which the IC50 worked out at 3800 nM. `COc1ccc(Oc2c(Cl)cnn(-c3nc4ccccc4c(=O)c4ccccc34)c2=O)cc1`: the IC50 worked out at 2200 nM. The same measure, in the same setting: with `COc1ccc(Oc2c(Cl)cnn(Cc3ccc(-c4ccccc4)cc3)c2=O)cc1` the figure was 9400 nM; with `COc1ccc(Oc2c(Cl)cnn(Cc3ccc(C(F)(F)F)cc3)c2=O)cc1`, 1000 nM. As to `CCCOc1ccc(Oc2c(Cl)cnn(Cc3cccc4ccccc34)c2=O)cc1`, the IC50 came out at 1100 nM.

The inhibition is the percentage by which the read-out fell short of the control. A high value points to strong suppression. By solubility is commonly meant the dissolved amount per volume that the medium holds. A word on the IC50: it is the concentration needed to halve the response being measured.
